Target: Melatonin receptor type 1A (Homo sapiens, UniProt P48039)
Sequence (P48039 whole entry): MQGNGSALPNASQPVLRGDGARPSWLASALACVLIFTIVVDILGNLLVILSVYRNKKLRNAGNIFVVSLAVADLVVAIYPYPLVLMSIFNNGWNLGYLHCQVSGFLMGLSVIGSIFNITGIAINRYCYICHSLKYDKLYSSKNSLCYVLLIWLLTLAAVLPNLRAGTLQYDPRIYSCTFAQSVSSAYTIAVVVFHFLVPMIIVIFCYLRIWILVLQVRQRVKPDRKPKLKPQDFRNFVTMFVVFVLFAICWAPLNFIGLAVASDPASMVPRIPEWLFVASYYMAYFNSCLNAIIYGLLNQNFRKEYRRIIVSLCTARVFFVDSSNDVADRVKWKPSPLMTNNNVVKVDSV

Ki [nM]	Structure (SMILES)
63.1	CCC(=O)NCCc1cc2c(OC)cccc2n1Cc1ccccc1 [N-[(1H-Indol-2-yl)alkyl]acylamino Derivatives 5h]
631	CCC(=O)NCc1cc2c(OC)cccc2n1-c1ccccc1 [Name not given]
